Assay results published in patent US20160029626A1 (priority 2011, published 2016).
“Also recorded” adds a separate entry of the source.

Tests used:
X. fastidiosa [1] = system: X. fastidiosa; design: species or system orange pear (Citrus sinenses); details: in vivo
orange pear plants = test: Plant development under NAC treatment (phytotoxicity); type: in vivo, orange pear (Citrus sinenses)
Description: 2. Experiments using NAC on infected plants: An analysis was performed with quantitative PCR, as described in sequence, to quantify the initial population of bacteria in plants. The plants were then transferred to Leonard pots, constructed from 750 mL glass bottles, cut and painted with metallic paint to prevent light penetration. Previously autoclaved, vermiculite and sand were added to the top of the vessel and in the collecting part, a Hoagland Arnon (1950) nutrient solution (FIG. 8). Two experiments were performed with different doses of N-acetyl L-cysteine (NAC), both conducted in a greenhouse (see table 1 below).
The first of the experiments was a pilot, in which 120 mg and 600 mg of N-acetyl L -cysteine (NAC) were added to 250 mL of Hoagland & Arnon (1950). Control plants were also maintained without addition of N-acetyl L-cysteine (NAC). The second test had plants to which were added 120 mg, 600 mg and 1500 mg L30 N-acetyl cysteine (NAC) along with 250 mL of nutrient solution of Hoagland & Arnon (1950) and control experiments without the addition of the compound. 4 biological repetitions were performed for each treatment in each experiment.

[2] = system: Streptococcus epidermidis, and Haemophilus influenzae, Moraxella catarrhalis; details: Zheng et al., 1999; OLOFSSON et al., 2003; cited from earlier work
[3] = Quantification of NAC by HPLC in nutrient solution of Leonard pots with plants (uptake by the plant); details: for Measured Conc of NAC in the samples collected: nutrient solution after one day with the plant
[4] = system: citrus variegated chlorosis (CVC), X. fastidiosa; design: species or system orange pear (Citrus sinenses); details: in vivo
[5] = system: Peseudomonas aeruginosa, Klebsiella pneumoniae Enterobacter cloacae, and Staphylococcus aureus; details: Parry et al. (1976); cited from earlier work
biofilm of X. fastidiosa = type: cell-based, Xylella fastidiosa 9a5c strain
[6] = Degradation of NAC in Hoagland nutrient solution in greenhouse (without plants), HPLC; type: physicochemical; details: 187.5 mg/mL expected without degradation
Description: A study to check the degradation of N-acetyl L-cysteine (NAC) was also performed in a Hoagland nutrient solution under the same conditions in which the in vivo experiment was carried out. The nutrient solution of Hoagland was prepared and placed in the receiving party of potted Leonard (without plants), as well as 600 mg N-acetyl L-cysteine (NAC).

X. fastidiosa biofilm = type: cell-based, Xylella fastidiosa 9a5c strain
X. fastidiosa [7] = system: X. fastidiosa; design: species or system orange pear (Citrus sinenses); details: in vivo; remark: listed apart in the source
X. fastidiosa [8] = type: cell-based, Xylella fastidiosa 9a5c strain

CC(=O)N[C@@H](CS)C(=O)O [NAC, N-acetyl L-cysteine]
amount of bacteria in each plant by qPCR (X. fastidiosa [1]): does not appear to have been affected | plant development (orange pear plants; 1500 mg NAC in 250 mL nutrient solution): plant development was clearly affected; also recorded: fall of leaves, wilting and visible damage to the physiological development of the plant | plant development after interruption of treatment (orange pear plants; 1500 mg NAC, two months in soil without treatment): remained less developed | plant development (orange pear plants; lower doses (120 and 600 mg) NAC): do not cause problems for plant development | adhesion of human pathogenic bacteria in epithelial cells and surface abiotic [2]: reduce the adhesion | absorption of the substance by the plant ([3]; 1500 mg NAC in 250 mL): absorption of the substance by the plant does not occur | transport of NAC by the plant ([3]; measured concentrations below those expected (lower doses)): could be transported by the plant | Measured Conc of NAC in the samples collected ([3]; total NAC 120 mg (expected 0.48 mg/mL)): 0.288 mg/mL | Measured Conc of NAC in the samples collected ([3]; total NAC 600 mg (expected 2.4 mg/mL)): 1.98 mg/mL | Measured Conc of NAC in the samples collected ([3]; total NAC 1500 mg (expected 6.0 mg/mL)): 6.156 mg/mL | CVC symptoms after interruption of treatment [4]: symptoms were observed to be less severe; also recorded: chlorosis spots were not observed | CVC symptoms in the leaves [4]: visible reduction of symptoms; also recorded: some points chlorosis in the leaves, but in smaller quantities; also recorded: hardly possible to see symptoms; also recorded: visibly smaller | control of the bacterium (symptoms and number of bacterial cells in leaves) [4]: effective in controlling the bacterium | symptoms in treated plants [4]: significant reduction of symptoms | symptoms later than two months after interruption of treatment [4]: resurgence of symptoms | efficiency regarding the adhesion of bacteria [5]: demonstrated efficiency | lowering of EPS between control and treatment (biofilm of X. fastidiosa; 6 mg/ml NAC): about 45% | total amount of EPS vs control (biofilm of X. fastidiosa; NAC 1, 2, 6 mg/mL): In control, the total amount of EPS was greater | concentration of NAC remaining in Hoagland solution ([6]; after 1 day in greenhouse): 143140 µg/mL | concentration of NAC remaining in Hoagland solution ([6]; after 7 days in greenhouse): 63220 µg/mL | concentration of NAC remaining in Hoagland solution ([6]; after 14 days in greenhouse): 3150 µg/mL | cell mass of biofilms compared to the control condition (X. fastidiosa biofilm; different doses of NAC (1, 2, 6 mg/mL), 14 days): reduced compared to the control condition | cell mass of planktonic cells (X. fastidiosa biofilm; different doses of NAC (1, 2, 6 mg/mL), planktonic fraction): increase in mass | biofilm formation (X. fastidiosa biofilm; doses of 1.0, 2.0 or 6.0 mg/mL): inhibited biofilm formation | number of X. fastidiosa cells isolated from plants after treatment (X. fastidiosa [7]): decrease in the number of X. fastidiosa cells; also recorded: strong decrease of bacteria | CFU/mL in biofilm vs control (X. fastidiosa [8]; 1 mg/mL NAC): lower than in the control biofilm | reduction of number of living cells present in the biofilm (X. fastidiosa [8]; 6 mg/mL NAC): ~100% | toxic action towards X. fastidiosa cells (X. fastidiosa [8]; in vitro, 1.0, 2.0 or 6.0 mg/mL): toxic action; also recorded: toxic to the cells of bacteria | CFU of planktonic cells in serial dilution (X. fastidiosa [8]; planktonic cells, NAC treatments, after 3 washes): not possible to count any CFU
